# Source: ChEMBL document CHEMBL1201862, “PubChem BioAssay data set” (2004)
# Active and inactive are the calls of the source. Cut-off read from the data, not from the text of the source: actives have a measured IC50 and inactives only a lower limit.
# Target: Envelope glycoprotein gp160 (Human immunodeficiency virus 1, UniProt Q6QLK5)
# Assay: inhibitors of HIV fusion peptide binding, primary screen, biochemical, uHTS, fluorescence dequenching (AID 1986)
# Chain of Envelope glycoprotein gp160 (Q6QLK5 whole entry, the tested form may be a part): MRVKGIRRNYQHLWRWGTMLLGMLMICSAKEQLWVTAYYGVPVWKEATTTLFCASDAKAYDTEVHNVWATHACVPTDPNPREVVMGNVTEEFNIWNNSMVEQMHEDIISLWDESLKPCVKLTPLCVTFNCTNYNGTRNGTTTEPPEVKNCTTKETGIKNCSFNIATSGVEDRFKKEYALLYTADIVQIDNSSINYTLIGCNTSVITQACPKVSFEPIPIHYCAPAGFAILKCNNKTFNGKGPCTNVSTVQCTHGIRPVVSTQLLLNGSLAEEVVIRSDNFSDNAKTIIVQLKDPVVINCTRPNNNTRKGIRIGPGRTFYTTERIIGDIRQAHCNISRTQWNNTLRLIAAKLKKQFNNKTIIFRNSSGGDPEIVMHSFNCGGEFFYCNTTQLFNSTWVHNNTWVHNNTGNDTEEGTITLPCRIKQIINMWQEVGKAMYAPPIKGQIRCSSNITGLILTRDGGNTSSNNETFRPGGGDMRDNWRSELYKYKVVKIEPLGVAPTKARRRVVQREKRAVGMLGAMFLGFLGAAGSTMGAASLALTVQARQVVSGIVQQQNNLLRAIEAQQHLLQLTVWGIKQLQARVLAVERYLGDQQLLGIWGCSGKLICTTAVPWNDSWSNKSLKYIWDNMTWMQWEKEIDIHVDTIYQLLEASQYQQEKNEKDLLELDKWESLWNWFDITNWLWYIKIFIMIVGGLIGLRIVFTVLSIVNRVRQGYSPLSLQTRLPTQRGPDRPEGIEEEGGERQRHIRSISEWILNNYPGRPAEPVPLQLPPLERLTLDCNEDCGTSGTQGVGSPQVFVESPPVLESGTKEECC
compound,measurement,value
Cc1cc(Cl)ccc1OC(C)C(=O)Nc1ccc(S(=O)(=O)Nc2cnc3ccccc3n2)cc1 (stereo unspecified),IC50,21.3 µM (active)
